Source: US20190115105A1, “TANDEM DUPLICATOR PHENOTYPE (TDP) AS A DISTINCT GENOMIC CONFIGURATION IN CANCER AND USE THEREOF” (The Jackson Laboratory, priority 2016, published 2019)
Where two headings read alike, the source gives them in different places.

How the values were obtained:
[1] = test system: HCC2218; details: HCC2218, ERBB2+, non-TDP, TDP Score −0.849; GDSC data base; cited from earlier work
[2] = test system: HCC2157; details: HCC2157, TNBC, TDP, TDP Score 0.076; GDSC data base; cited from earlier work
[3] = test system: HCC1599; details: HCC1599, TNBC, non-TDP, TDP Score −0.447; GDSC data base; cited from earlier work
[4] = test system: HCC1187; details: HCC1187, TNBC, TDP, TDP Score 0.152; GDSC data base; cited from earlier work
[5] = test system: HCC70; assay: Cell viability IC50 (WST-8), HCC70; type: cell-based, human; details: HCC70, TDP Score −0.3, 72 hours
Text: (§1) All of the cell lines were purchased from the American Type Culture Collection (ATCC). They were authenticated by Short Tandem Repeat (STR) DNA profiling and regularly tested for Mycoplasma contamination using the MycoAlert PLUS Mycoplasma Detection Kit (Lonza). MB436, HCC38, HCC1187, HCC1395, MDA-MB231, HCC1937, HCC1599, HCC1143, HCC70, DU4475, MDA-MB157, HCC1806 were maintained in RPMI with 10% fetal bovine serum (FBS). BT549 was maintained in DMEM with 10% v/v FBS, and Hs578T in DMEM with 10% FBS and 0.01 mg/ml bovine insulin. IC50 value determinations were obtained by plating target cells in 96 well plates at a density of 1-5×10^3 cells per well. After twenty-four hours, cisplatin (Santa Cruz Biotechnology, Inc.) or carboplatin (Selleck Chemicals) were added to the culture medium in half-log serial dilutions in the range of 3.3 nM to 100 μM, in triplicate wells. Cells were incubated for 72 hours before assessing cell viability using the WST-8 assay (Dojindo Molecular Technologies, Inc.). Absorbance values were normalized to control wells (medium only) and IC50 values were calculated using the IC50R package. Two independent replicate experiments were carried out for each cell line and each treatment and the average IC50 value from the two experiments was used for the analysis.

[6] = test system: T47D; details: ER/PR+, non-TDP, TDP Score −0.269, GDSC data base; cited from earlier work
[7] = test system: HCC1187; assay: Cell viability IC50 (WST-8), HCC1187; type: cell-based, human; details: HCC1187, TDP Score 0.152, 72 hours
Text: as §1

[8] = test system: MB231; assay: Cell viability IC50 (WST-8), MB231; type: cell-based, human; details: MB231, TDP Score −0.306, 72 hours
Text: as §1

[9] = test system: TNBC patient derived xenograft (PDX) models; assay: In vivo response in patient derived xenograft (PDX) models of TNBC; design: species or system mice; details: for association of the TDP with sensitivity in PDX models: same eight TNBC PDX models, data not shown
Text: This hypothesis was explored further by testing in vivo response to cisplatin treatment in eight independent patient derived xenograft (PDX) models of TNBC. […] Thus in both established cell lines and in in vivo patient derived xenografts, TDP status is strongly associated with cisplatin sensitivity.
TNBC patient-derived xenograft models were established at The Jackson Laboratory campus in Sacramento (JAX-West) and tested for cisplatin sensitivity as previously published. All animal procedures were performed under IACUC protocol #12027. Briefly, patient tumor material acquired from biopsy or surgical resection was implanted subcutaneously into the flank of NOD-scid IL2r gamma-chain null female mice (8-10 week-old). Models were considered “established” when log-phase growth in a second passage was evident. Individual tumor-bearing mice were randomized into treatments cohorts of at least six animals each on an accrual basis when tumors reached a volume of 150 mm^3 (day 0), at which point each tumor model was assessed for its response to cisplatin treatment, administrated at a dose of 2 mg/kg body weight and following a three-week regimen consisting of one IV injection per week. Changes in tumor volumes were measured twice a week for four full weeks from the beginning of the treatment or until tumor volumes reached the 1500 mm^3 endpoint. Treatment outcome was evaluated in terms of total response (percentage of tumor shrinkage/growth at day 20 relative to day 0). The […] TNBC PDX models that were available as part of The Jackson Laboratory inventory of TNBC PDX Live™ tumor-bearing mice were analyzed. In combination with a high number of replicates per model (6-10 animals per treatment arm), enough power to observe the statistically significant effect of the TDP configuration on cisplatin response was obtained.

[10] = test system: HCC1599; assay: Cell viability IC50 (WST-8), HCC1599; type: cell-based, human; details: HCC1599, TDP Score −0.447, 72 hours
Text: as §1

[11] = test system: HCC38; details: HCC38, TNBC, TDP, TDP Score 0.367; GDSC data base; cited from earlier work
[12] = test system: MB157; assay: Cell viability IC50 (WST-8), MB157; type: cell-based, human; details: MB157, TDP Score −0.39, 72 hours
Text: as §1

[13] = test system: HCC1806; assay: Cell viability IC50 (WST-8), HCC1806; type: cell-based, human; details: HCC1806, TDP Score 0.08, 72 hours
Text: as §1

[14] = test system: HCC1143; assay: Cell viability IC50 (WST-8), HCC1143; type: cell-based, human; details: HCC1143, TDP Score −0.424, 72 hours
Text: as §1

[15] = test system: MB231; details: MB231, TNBC, non-TDP, TDP Score −0.306; GDSC data base; cited from earlier work
[16] = test system: DU4475; assay: Cell viability IC50 (WST-8), DU4475; type: cell-based, human; details: DU4475, TDP Score −0.36, 72 hours
Text: as §1

[17] = test system: MB436; assay: Cell viability IC50 (WST-8), MB436; type: cell-based, human; details: MB436, TDP Score 0.469, 72 hours
Text: as §1

[18] = test system: HCC1395; assay: Cell viability IC50 (WST-8), HCC1395; type: cell-based, human; details: HCC1395, TDP Score 0.118, 72 hours
Text: as §1

[19] = test system: HCC1395; details: HCC1395, TNBC, TDP, TDP Score 0.118; GDSC data base; cited from earlier work
[20] = test system: HCC1954; details: HCC1954, ERBB2+, non-TDP, TDP Score −0.434; GDSC data base; cited from earlier work
[21] = test system: BT549; assay: Cell viability IC50 (WST-8), BT549; type: cell-based, human; details: BT549, TDP Score −0.3, 72 hours
Text: as §1

[22] = test system: Hs578T; assay: Cell viability IC50 (WST-8), Hs578T; type: cell-based, human; details: TDP Score −0.54, 72 hours
Text: as §1

[23] = test system: HCC38; assay: Cell viability IC50 (WST-8), HCC38; type: cell-based, human; details: HCC38, TDP Score 0.367, 72 hours
Text: as §1

[24] = test system: HCC1937; assay: Cell viability IC50 (WST-8), HCC1937; type: cell-based, human; details: HCC1937, TDP Score −0.17, 72 hours
Text: as §1

[25] = test system: HCC1937; details: HCC1937, TNBC, non-TDP, TDP Score −0.17; GDSC data base; cited from earlier work
[26] = test system: MCF-7; details: MCF-7, ER/PR+, TDP, TDP Score 0.385; GDSC data base; cited from earlier work

In the case of `Cc1cc(N2CCOCC2)cc2[nH]c(-c3c(NC[C@@H](O)c4cccc(Cl)c4)cc[nH]c3=O)nc12` [BMS-536924], the “IC50 Ln (μM)” value [1] is given as 6.22 Ln (μM), the “IC50 Ln (μM)” value [2] is given as 3.64 Ln (μM) and the “IC50 Ln (μM)” value [3] is given as 5.27 Ln (μM). The “IC50 Ln (μM)” value [4] was 2.81 Ln (μM).

For `N.N.[Cl][Pt][Cl]` [Cisplatin, cisplatin], the “IC50 Ln (μM)” value [5] is given as 2.75 Ln (μM), the “IC50 Ln (μM)” value [6] is given as 4.86 Ln (μM) and the “IC50 Ln (μM)” value [7] is given as 2.15 Ln (μM). The “IC50 Ln (μM)” value [1] was 5.99 Ln (μM), the “IC50 Ln (μM)” value [8] was 3.52 Ln (μM) and the “tumor growth compared to the vehicle arm” value ([9]; all five TDP PDX models, three-week regimen, 2 mg/kg IV weekly) was “significant reduction in tumor growth”. The “tumor shrinkage of individual tumors (partial response)” value ([9]; four out of the five TDP PDX models, three-week regimen, 2 mg/kg, one IV injection per week) was greater than 80%, the “reduction in tumor volume after three weeks of treatment” value ([9]; three non-TDP PDX models, 2 mg/kg IV weekly) was “none of the three non-TDP models analyzed exhibited a reduction in tumor volume” and the “response compared to the vehicle arm” value ([9]; three non-TDP PDX models, three-week regimen, 2 mg/kg IV weekly) was “only one out of the three models showed a significant response”. For the same compound, the “IC50 Ln (μM)” value [10] was 2.65 Ln (μM), the “IC50 Ln (μM)” value [11] was 5.07 Ln (μM) and the “IC50 Ln (μM)” value [12] was 2.62 Ln (μM). For the same compound, the “IC50 Ln (μM)” value [13] was 2.76 Ln (μM), the “IC50 Ln (μM)” value [14] was 3.3 Ln (μM) and the “IC50 Ln (μM)” value [15] was 5.57 Ln (μM). The “IC50 Ln (μM)” value [16] was 2.04 Ln (μM), the “IC50 Ln (μM)” value [17] was 1.17 Ln (μM) and the “IC50 Ln (μM)” value [18] was 2.4 Ln (μM). For the same compound, the “IC50 Ln (μM)” value [19] was 4.96 Ln (μM), the “IC50 Ln (μM)” value [20] was 6.94 Ln (μM) and the “IC50 Ln (μM)” value [21] was 2.28 Ln (μM). For the same compound, the “IC50 Ln (μM)” value [22] was 3.62 Ln (μM), the “IC50 Ln (μM)” value [23] was 2.8 Ln (μM) and the “IC50 Ln (μM)” value [24] was 3.22 Ln (μM). For the same compound, the “IC50 Ln (μM)” value [4] was 4.76 Ln (μM) and the “IC50 Ln (μM)” value [25] was 4.92 Ln (μM).

For `Nc1ccn([C@@H]2O[C@H](CO)[C@@H](O)[C@@H]2O)c(=O)n1` [Cytarabine], the “IC50 Ln (μM)” value [6] is given as 3.47 Ln (μM), the “IC50 Ln (μM)” value [1] is given as 4.68 Ln (μM) and the “IC50 Ln (μM)” value [11] is given as 0.63 Ln (μM). For the same compound, the “IC50 Ln (μM)” value [26] was 0.69 Ln (μM), the “IC50 Ln (μM)” value [15] was 2.18 Ln (μM) and the “IC50 Ln (μM)” value [19] was 1.1 Ln (μM). For the same compound, the “IC50 Ln (μM)” value [20] was 3.41 Ln (μM), the “IC50 Ln (μM)” value [4] was 3.36 Ln (μM) and the “IC50 Ln (μM)” value [25] was 3.32 Ln (μM).

In the case of `COc1cc(N2CCC(N3CCN(C)CC3)CC2)ccc1Nc1ncc(Cl)c(Nc2ccccc2S(=O)(=O)C(C)C)n1` [NVP-TAE684], the “IC50 Ln (μM)” value [1] is given as 5.37 Ln (μM), the “IC50 Ln (μM)” value [2] is given as 0.38 Ln (μM) and the “IC50 Ln (μM)” value [3] is given as 2.98 Ln (μM). The “IC50 Ln (μM)” value [4] was 0.62 Ln (μM).

For `O=C(c1cc(Cc2n[nH]c(=O)c3ccccc23)ccc1F)N1CCN(C(=O)C2CC2)CC1` [Olaparib, olaparib], the “IC50 Ln (μM)” value [5] was 4.19 Ln (μM), the “IC50 Ln (μM)” value [7] was 3.57 Ln (μM) and the “IC50 Ln (μM)” value [8] was 3.49 Ln (μM). The “IC50 Ln (μM)” value [12] was 3.16 Ln (μM), the “IC50 Ln (μM)” value [13] was 2.40 Ln (μM) and the “IC50 Ln (μM)” value [14] was 4.57 Ln (μM). For the same compound, the “IC50 Ln (μM)” value [17] was 3.77 Ln (μM), the “IC50 Ln (μM)” value [18] was 4.28 Ln (μM) and the “IC50 Ln (μM)” value [21] was 3.09 Ln (μM). The “IC50 Ln (μM)” value [22] was 4.61 Ln (μM), the “IC50 Ln (μM)” value [23] was 1.99 Ln (μM) and the “IC50 Ln (μM)” value [24] was 4.51 Ln (μM).

For `CC(=O)O[C@@]12CO[C@@H]1C[C@H](O)[C@@]1(C)C(=O)[C@H](O)C3=C(C)[C@@H](OC(=O)[C@H](O)[C@@H](NC(=O)OC(C)(C)C)c4ccccc4)C[C@@](O)([C@@H](OC(=O)c4ccccc4)[C@H]21)C3(C)C` [docetaxel], the “association of the TDP with sensitivity in PDX models” value [9] was “not associated with sensitivity”.

For `COc1cccc2c1C(=O)c1c(O)c3c(c(O)c1C2=O)C[C@@](O)(C(=O)CO)C[C@@H]3O[C@H]1C[C@H](N)[C@H](O)[C@H](C)O1` [doxorubicin], the “association of the TDP with sensitivity in PDX models” value [9] was “not associated with sensitivity”.
